Assay results from article PMC11855827, “High-Throughput Screening of Five Compound Libraries for Anthelmintic Activity and Toxicity Leads to the Discovery of Two Flavonoid Compounds” (International Journal of Molecular Sciences, 2025).
Values joined by “and” are separate entries in the source; they are usually repeats but may differ in a detail not shown here. Identical values can stand only once. Like-named read-outs stand apart in the source and are kept apart here. Where a SMILES comes first, the peptide text is derived from it.

Tested on: C. elegans
[1] = Table S2, C. elegans SS assay, 110 μM, averages of 4 data points

Row | Compound | Percentage of motility inhibition 0 h [1] | Percentage of motility inhibition 24 h [1] | Percentage of motility inhibition 0 h (110 μM) | Percentage of motility inhibition 24 h (110 µM)
1 | CC(C)=CCC[C@](C)(O)[C@H]1CC[C@]2(C)[C@@H]1[C@H](O)C[C@@H]1[C@@]3(C)C[C@@H](O)[C@H](O[C@@H]4O[C@H](CO)[C@@H](O)[C@H](O)[C@H]4O[C@@H]4O[C@H](CO)[C@@H](O)[C@H](O)[C@H]4O)C(C)(C)[C@@H]3CC[C@]12C [Gypenoside L] | 22% | 15% | – | –
2 | CC(C)=CCC[C@](C)(O[C@@H]1O[C@H](CO[C@@H]2OC[C@@H](O)[C@H](O)[C@H]2O)[C@@H](O)[C@H](O)[C@H]1O)[C@H]1CC[C@]2(C)[C@@H]1[C@H](O)C[C@@H]1[C@@]3(C)CC[C@H](O)C(C)(C)[C@@H]3CC[C@]12C [Gypenoside XIII] | 7% | 13% | – | –
3 | CC(C)=CCC[C@@](O)(CO[C@@H]1O[C@H](CO)[C@@H](O)[C@H](O)[C@H]1O)[C@H]1CC[C@]2(C)[C@@H]1CC[C@@H]1[C@@]3(C=O)CC[C@H](O[C@@H]4OC[C@H](O)[C@H](O[C@@H]5OC[C@@H](O)[C@H](O)[C@H]5O)[C@H]4O[C@@H]4O[C@@H](C)[C@H](O)[C@@H](O)[C@H]4O)C(C)(C)[C@@H]3CC[C@]12C [Gypenoside XLIX] | 3% | 6% | – | –
4 | CC(C)=CCCC(C)(OC1OC(CO)C(O)C(O)C1O)C1CCC2(C)C1C(O)CC1C3(C)CC(O)C(OC4OC(CO)C(O)C(O)C4OC4OC(CO)C(O)C(O)C4O)C(C)(C)C3CCC12C (stereo not drawn) [Gypenoside XLVI] | 1% | 2% | – | –
5 | CN[C@H]1[C@H](O)[C@H](O[C@@H]2[C@@H](O)[C@H](O[C@H]3O[C@H](C(C)O)[C@@H](O)[C@H](O)[C@H]3N)[C@@H](N)C[C@H]2N)OC[C@@]1(C)O.O=S(=O)(O)O.O=S(=O)(O)O (stereo partly drawn) [G‐418 (disulfate)] | 26% | 11% | – | –
6 | CCCC(C(=O)O)c1c(C)nc2ccc(Cl)cc2c1-c1ccccc1 (stereo not drawn) [HIV‐1 integrase inhibitor 2] | 14% | 13% | – | –
7 | [N-]=[N+]=NCc1cccc(/C(O)=C/C(=O)C(=O)O)c1 [HIV‐1 integrase inhibitor] | 22% | 10% | – | –
8 | Br.O=C(CC1NCCCC1O)Cn1cnc2cc(Br)c(Cl)cc2c1=O (stereo not drawn) [Halofuginone (hydrobromide)] | 4% | 0% | – | –
9 | CC1=NCCc2c1[nH]c1cc(O)ccc21.Cl [Harmalol (hydrochloride)] | 17% | 2% | – | –
10 | COc1ccc2c(c1)[nH]c1c(C)nccc12.Cl [Harmine (hydrochloride)] | 22% | 11% | – | –
11 | COC(=O)C1=CO[C@@H](O[C@@H]2O[C@H](CO)[C@@H](O)[C@H](O)[C@H]2O)[C@@H]2[C@@H](C)CC(=O)[C@]12O [Hastatoside] | 0% | 8% | – | –
12 | C[C@@H]1O[C@@H](O[C@H]2[C@H](O[C@H]3CC[C@@]4(C)[C@@H](CC[C@]5(C)[C@@H]4CC=C4[C@@H]6CC(C)(C)CC[C@]6(C(=O)O[C@@H]6O[C@H](CO[C@@H]7O[C@H](CO)[C@@H](O[C@@H]8O[C@@H](C)[C@H](O)[C@@H](O)[C@H]8O)[C@H](O)[C@H]7O)[C@@H](O)[C@H](O)[C@H]6O)CC[C@]45C)[C@]3(C)CO)OC[C@H](O)[C@@H]2O)[C@H](O)[C@H](O)[C@H]1O [Hederacoside C] | 18% | 0% | – | –
13 | C[C@@H]1O[C@@H](O[C@H]2[C@H](O)[C@@H](O)[C@H](OC[C@H]3O[C@@H](OC(=O)[C@]45CCC(C)(C)C[C@H]4C4=CC[C@@H]6[C@@]7(C)CC[C@H](O[C@@H]8OC[C@H](O)[C@H](O)[C@H]8O)[C@@](C)(CO)[C@@H]7CC[C@@]6(C)[C@]4(C)CC5)[C@H](O)[C@@H](O)[C@@H]3O)O[C@@H]2CO)[C@H](O)[C@H](O)[C@H]1O [Hederacoside D] | 2% | 2% | – | –
14 | O=Cc1ccc(O[C@@H]2O[C@H](CO)[C@@H](O)[C@@H](O)[C@H]2O)cc1 [Helicid] | 11% | 4% | – | –
15 | COc1ccc([C@@H]2CC(=O)c3c(O)cc(O[C@@H]4O[C@H](CO)[C@@H](O)[C@H](O)[C@H]4O)cc3O2)cc1O [Hesperetin 7‐O‐glucoside] | 16% | 14% | – | –
16 | COc1ccc([C@@H]2CC(=O)c3c(O)cc(O[C@@H]4O[C@H](CO[C@@H]5O[C@@H](C)[C@H](O)[C@@H](O)[C@H]5O)[C@@H](O)[C@H](O)[C@H]4O)cc3O2)cc1O [Hesperidin] | – | 2% and 0% | – | –
17 | Cl.Oc1ccc(CC2NCCc3cc(O)c(O)cc32)cc1 (stereo not drawn) [Higenamine (hydrochloride)] | 0% | 7% | – | –
18 | Cl.Cl.NCCc1c[nH]cn1 [Histamine (dihydrochloride)] | 0% | 3% | – | –

Row | Compound | Percentage of motility inhibition 0 h [1] | Percentage of motility inhibition 24 h [1] | Percentage of motility inhibition 0 h (110 μM) | Percentage of motility inhibition 24 h (110 µM)
19 | NCCc1c[nH]cn1.O=P(O)(O)O.O=P(O)(O)O [Histamine (phosphate)] | 6% and 9% | – | – | –
20 | COc1c(O[C@@H]2O[C@H](CO)[C@@H](O)[C@H](O)[C@H]2O)cc2oc(-c3ccc(O)cc3)cc(=O)c2c1O [Homoplantaginin] | 19% | 5% | – | –
21 | C[C@@H](CO)[C@@H]1CC[C@@]2(CC[C@]3(C)[C@H](CC[C@@H]4[C@@]5(C)CC[C@H](O[C@@H]6O[C@H](CO)[C@@H](O)[C@H](O)[C@H]6O[C@@H]6O[C@H](CO)[C@@H](O)[C@H](O)[C@H]6O)[C@@](C)(CO[C@@H]6O[C@H](CO)[C@@H](O)[C@H](O)[C@H]6O)[C@@H]5CC[C@]43C)[C@H]2O)CO1 [Hosenkoside A] | 15% | 19% | – | –
22 | C[C@H](CO[C@@H]1O[C@H](CO)[C@@H](O)[C@H](O)[C@H]1O)[C@H]1CC[C@@]2(CC[C@]3(C)[C@H](CC[C@@H]4[C@@]5(C)CC[C@H](O[C@@H]6O[C@H](CO)[C@@H](O)[C@H](O)[C@H]6O[C@@H]6O[C@H](CO)[C@@H](O)[C@H](O)[C@H]6O)[C@@](C)(CO)[C@@H]5CC[C@]43C)[C@H]2O)CO1 [Hosenkoside B] | 7% | 10% | – | –
23 | C[C@H](CO[C@@H]1O[C@H](CO)[C@@H](O)[C@H](O)[C@H]1O)[C@H]1CC[C@@]2(CC[C@]3(C)[C@H](CC[C@@H]4[C@@]5(C)CC[C@H](O[C@@H]6O[C@H](CO)[C@@H](O)[C@H](O)[C@H]6O[C@@H]6OC[C@@H](O)[C@H](O)[C@H]6O)[C@@](C)(CO)[C@@H]5CC[C@]43C)[C@H]2O)CO1 [Hosenkoside F] | 12% | 0% | – | –
24 | C[C@@H](CO[C@@H]1O[C@H](CO)[C@@H](O)[C@H](O)[C@H]1O)[C@@H]1CC[C@@]2(CC[C@]3(C)[C@H](CC[C@@H]4[C@@]5(C)CC[C@H](O[C@@H]6O[C@H](CO)[C@@H](O)[C@H](O)[C@H]6O[C@@H]6O[C@H](CO)[C@@H](O)[C@H](O)[C@H]6O)[C@@](C)(CO[C@@H]6O[C@H](CO)[C@@H](O)[C@H](O)[C@H]6O)[C@@H]5CC[C@]43C)[C@H]2O)CO1 [Hosenkoside K] | 10% | 2% | – | –
25 | C[C@@H](CO[C@@H]1O[C@H](CO)[C@@H](O)[C@H](O)[C@H]1O)[C@@H]1CC[C@@]2(CC[C@]3(C)[C@H](CC[C@@H]4[C@@]5(C)CC[C@H](O[C@@H]6O[C@H](CO)[C@@H](O)[C@H](O)[C@H]6O[C@@H]6OC[C@@H](O)[C@H](O)[C@H]6O)[C@@](C)(CO[C@@H]6O[C@H](CO)[C@@H](O)[C@H](O)[C@H]6O)[C@@H]5CC[C@]43C)[C@H]2O)CO1 [Hosenkoside M] | 5% | 0% | – | –
26 | CCC1=N[C@H]2C[C@@]3(C(=O)N(OC)c4ccccc43)[C@H]3CC1[C@@H]2CO3 [Humantenmine] | 8% | 12% | – | –
27 | C[C@H]1CC[C@H]2[C@H](C)[C@@H]3CC[C@@H]4[C@@H](C[C@H]5[C@H]4C[C@@H](O)[C@H]4C[C@@H](O)CC[C@@]45C)[C@@H]3CN2C1 [Hupehenine] | 0% | 10% | – | –
28 | CC[C@H]1CN2CC[C@H]1C[C@@H]2[C@@H](O)c1ccnc2ccc(OC)cc12 [Hydroquinidine] | 29% and 50% | – | – | –
29 | COc1cc(O)c2c(=O)cc(-c3ccc(O)c(O)c3)oc2c1 [Hydroxygenkwanin] | 11% | 13% | – | –
30 | C/C=C/C=C/C=C\CC/C=C/C(=O)NCC(C)(C)O [Hydroxy‐α‐sanshool] | 3% | 0% | – | –
31 | C/C=C/C=C/C=C/CC/C=C/C(=O)NCC(C)(C)O [Hydroxy‐β‐sanshool] | 46% | 10% | – | –
32 | NCC(=O)N1CCC[C@H]1C(=O)O [H‐Gly‐Pro‐OH] (H-Gly-Pro-OH) | 8% | 4% | – | –
33 | NCCCC[C@H](NC(=O)[C@H](Cc1c[nH]c2ccccc12)NC(=O)[C@@H](N)CCCCN)C(=O)O [H‐Lys‐Trp‐Lys‐OH] (H-Lys-Trp-Lys-OH) | – | – | 55% | 10%
34 | CCCCCCCCCCCCC(=O)NNC(=O)c1c(O)c2ccccc2n(CC)c1=O [I2906] | 27% | 30% | – | –
35 | CC(C)=CCc1c(O)cc(O)c2c(=O)c(O[C@@H]3O[C@@H](C)[C@H](O)[C@@H](O)[C@H]3O)c(-c3ccc(O)cc3)oc12 [IKarisoside A] | 32% | 5% | – | –
36 | COc1ccc(-c2oc3c(CC=C(C)C)c(O[C@@H]4O[C@H](CO)[C@@H](O)[C@H](O)[C@H]4O)cc(O)c3c(=O)c2O)cc1 [Icariside I] | 0% | 23% | – | –
